From the NIST ThermoML archive (doi:10.1021/je5007218)
Numbers after ± are expanded uncertainties.

Assay: refractive index (Na D-line) (dimensionless)
Details: 293.15 K; 101.33 kPa; Liquid; Standard Abbe refractometry

refractive index | SMILES
1.34386 ± 0.00035 | CC#N [acetonitrile]
1.33299 ± 0.00035 | O [water]
1.39928 ± 0.0004 | CCCCO [butan-1-ol]
1.39563 ± 0.0004 | CC(C)CO [2-methyl-1-propanol]
